Counter-ions that a name gives are not always drawn.
Legend:
Format in all cases: in vivo, soybean
mutant line W19 = assay: Test B postemergence cross resistance test; settings: Glycine max, post-emergence
Description: (§1) In the second postemergence test, six true-breeding resistant mutant lines (W4, W17, W19, W20, W23, and W28) were compared to Williams 82 for cross resistance to a broad range of ALS inhibitors including eight sulfonylureas and three imidazolinones. Two seeds were planted in each 10 cm pot and allowed to grow to the second trifoliolate stage. Pots were not thinned back if both plants were at the proper stage. For each of 11 herbicides, two rates (Table VII) were selected based on previous data: the low rate was expected to cause significant injury (but not death) to Williams 82 and the high rate was expected to severely injure or kill Williams 82. All but a few line x rate treatments were replicated twice.
(§2) In both postemergence tests, plants were returned to the greenhouse after treatment and provided with ample light, moisture, and nutrients to support healthy plant growth. Two to three ratings per pot were recorded over a three-week period and averaged to obtain a single value for each pot For each herbicide, analysis of variance on injury ratings was performed separately. Fisher's least significant difference (LSD) was used to determine the significance of line mean differences at each herbicide rate using the 95% level of confidence. […]

mutant line W4 = assay: Test B postemergence cross resistance test; settings: Glycine max, post-emergence
Description: as §1, §2

mutant line W23 = assay: Test B postemergence cross resistance test; settings: Glycine max, post-emergence
Description: as §1, §2

Williams 82 [1] = assay: Test B postemergence cross resistance test; settings: Glycine max, post-emergence
Description: as §1, §2

mutant line W17 = assay: Test B postemergence cross resistance test; settings: Glycine max, post-emergence
Description: as §1, §2

mutant line W28 = assay: Test B postemergence cross resistance test; settings: Glycine max, post-emergence
Description: as §1, §2

mutant line W20 = assay: Test B postemergence cross resistance test; settings: Glycine max, post-emergence
Description: as §1
In both postemergence tests, plants were returned to the greenhouse after treatment and provided with ample light, moisture, and nutrients to support healthy plant growth. Two to three ratings per pot were recorded over a three-week period and averaged to obtain a single value for each pot For each herbicide, analysis of variance on injury ratings was performed separately. Fisher's least significant difference (LSD) was used to determine the significance of line mean differences at each herbicide rate using the 95% level of confidence.

Williams 82 [2] = assay: Test A postemergence herbicide spray, greenhouse pots
Description: (§3) In the first post-emergence test, two true-breeding resistant mutant lines, W19 and W20, were compared to previously isolated tolerant mutants and wild-type Williams 82. Eighteen pots (20 cm diameter) of each soybean line (2 seeds per pot) were planted using a standard sterile potting mix. When the seedlings reached the second trifoliolate stage, plants were thinned back to one plant per pot. Each pot was then sprayed with a specific herbicide treatment using a conveyor belt spray apparatus to emulate field application. The nine different herbicide treatments included one rate (8 g/ha) of Compound 1 and two rates (8 and 32 g/ha) each of four other sulfonylurea herbicides (Compounds 2,3,7 and 8) (see Table VI) using a factorial treatment design with 2 replications.
as §2

mutant W20 [3] = assay: as above
Description: as §3, §2

Mutant 1-184A = assay: as above
Description: as §3, §2

mutant W19 = assay: as above
Description: as §3, §2

Williams 82 [4] = assay: Postemergence herbicide spray test of W4-4 (Table VII-A); settings: two weeks after treatment
Procedure: (§4) To investigate this hypothesis, a postemergence herbicide spray test was conducted to compare the reaction of W4-4 to both W20 and wild-type Williams. The applicant was particularly interested in the resistance of W4-4 to herbicide treatments that were injurious to both Williams and W20 in a previous test (Table VII). […] Twenty-four plants each of W4-4, W20, and Williams were planted in separate 10 cm pots and allowed to grow to the second trifoliolate stage. Each pot constituted a single experimental unit receiving a single herbicide treatment. Herbicide treatments (Table VIIA) were applied as described for the first postemergence test and were replicated twice. Control plants were sprayed with the spray carrier solution only (water with 0.25% X77 surfactant). At two weeks after treatment, each plant was rated for % herbicide injury as described in Table VIII. Analysis of variance on injury ratings was performed separately for each herbicide to calculate treatment means and standard errors. Fisher's least significant difference (LSD) was used to determine the significance of line means differences at each herbicide rate using the 95% level of confidence. […]

mutant W20 [5] = assay: as above; settings: two weeks after treatment
Procedure: as §4

Mutant W4-4 = assay: as above; settings: two weeks after treatment
Procedure: as §4

W20 = assay: Field use rate test (Table VII-B)
W4-4 = assay: Field use rate test (Table VII-B)
WM82 (Williams) = assay: Field use rate test (Table VII-B)

## COC(=O)c1ccccc1S(=O)(=O)NC(=O)N(C)c1nc(C)nc(OC)n1 [Compound 3, Methyl 2-[[[[N-(4-methoxy-6-methyl-1,3,5-triazin-2-yl)N-methylamino]carbonyl]amino]sulfonyl]benzoate]
Mutant line W19; W19, 2 g/ha postemergence
  percent soybean crop injury at 2 g/ha: 5%
Mutant line W19; W19, 8 g/ha postemergence
  percent soybean crop injury at 8 g/ha: 29%
Mutant line W4; W4, 2 g/ha postemergence
  % crop injury at 2 g/ha: 3%
Mutant line W4; W4, 8 g/ha postemergence
  % crop injury at 8 g/ha: 18%
Mutant line W23; W23, 2 g/ha postemergence
  percent soybean injury at 2 g/ha: 0%
Mutant line W23; W23, 8 g/ha postemergence
  percent soybean injury at 8 g/ha: 45%
Williams 82 [1]; Wm 82, 2 g/ha postemergence
  soybean crop injury at 2 g/ha: 60%
Williams 82 [1]; Wm 82, 8 g/ha postemergence
  soybean crop injury at 8 g/ha: 94%
Mutant line W17; W17, 2 g/ha postemergence
  soybean crop injury (%) at 2 g/ha: 0%
Mutant line W17; W17, 8 g/ha postemergence
  soybean crop injury (%) at 8 g/ha: 25%
Mutant line W28; W28, 2 g/ha postemergence
  mean % injury to soybean at 2 g/ha: 8%
Mutant line W28; W28, 8 g/ha postemergence
  mean % injury to soybean at 8 g/ha: 21%
Mutant line W20; W20, 2 g/ha postemergence
  percent crop injury at 2 g/ha: 0%
Williams 82 [2]; WM 82, 8 g/ha postemergence
  mean % injury: 92%
Williams 82 [2]; WM 82, 32 g/ha postemergence
  mean % injury: 95%
Mutant W20 [3]; W20, 8 g/ha postemergence
  mean % injury: 8%
Mutant W20 [3]; W20, 32 g/ha postemergence
  mean % injury: 63%
Mutant 1-184A; 8 g/ha postemergence
  mean % injury: 90%
Mutant 1-184A; 32 g/ha postemergence
  mean % injury: 91%
Mutant W19; W19, 8 g/ha postemergence
  mean % injury: 14%
Mutant W19; W19, 32 g/ha postemergence
  mean % injury: 63%

## CCS(=O)(=O)c1cccnc1S(=O)(=O)NC(=O)Nc1nc(OC)cc(OC)n1 [Compound 7, N-[[(4,6-dimethoxy-2-pyrimidinyl)amino]carbonyl]-3-(ethylsulfonyl)-2-pyridinesulfonamide]
Mutant line W19; W19, 1 g/ha postemergence
  percent soybean crop injury at 1 g/ha: 19%
Mutant line W19; W19, 4 g/ha postemergence
  percent soybean crop injury at 4 g/ha: 65%
Mutant line W4; W4, 1 g/ha postemergence
  % crop injury at 1 g/ha: 21%
Mutant line W4; W4, 4 g/ha postemergence
  % crop injury at 4 g/ha: 69%
Mutant line W23; W23, 1 g/ha postemergence
  percent soybean injury at 1 g/ha: 31%
Mutant line W23; W23, 4 g/ha postemergence
  percent soybean injury at 4 g/ha: 60%
Williams 82 [1]; Wm 82, 1 g/ha postemergence
  soybean crop injury at 1 g/ha: 61%
Williams 82 [1]; Wm 82, 4 g/ha postemergence
  soybean crop injury at 4 g/ha: 98%
Mutant line W17; W17, 1 g/ha postemergence
  soybean crop injury (%) at 1 g/ha: 16%
Mutant line W17; W17, 4 g/ha postemergence
  soybean crop injury (%) at 4 g/ha: 55%
Mutant line W28; W28, 1 g/ha postemergence
  mean % injury to soybean at 1 g/ha: 20%
Mutant line W28; W28, 4 g/ha postemergence
  mean % injury to soybean at 4 g/ha: 54%
Mutant line W20; W20, 1 g/ha postemergence
  percent crop injury at 1 g/ha: 28%
Mutant line W20; W20, 4 g/ha postemergence
  percent crop injury at 4 g/ha: 66%
Williams 82 [2]; WM 82, 8 g/ha postemergence
  mean % injury: 95%
Williams 82 [2]; WM 82, 32 g/ha postemergence
  mean % injury: 93%
Mutant W20 [3]; W20, 8 g/ha postemergence
  mean % injury: 65%
Mutant W20 [3]; W20, 32 g/ha postemergence
  mean % injury: 84%
Mutant 1-184A; 8 g/ha postemergence
  mean % injury: 93%
Mutant 1-184A; 32 g/ha postemergence
  mean % injury: 93%
Mutant W19; W19, 8 g/ha postemergence
  mean % injury: 65%
Mutant W19; W19, 32 g/ha postemergence
  mean % injury: 80%
Williams 82 [4]; WM82, 4 g/ha postemergence
  mean % injury: 83%
Williams 82 [4]; WM82, 16 g/ha postemergence
  mean % injury: 93%
Williams 82 [4]; WM82, 32 g/ha postemergence
  mean % injury: 90%
Mutant W20 [5]; W20, 4 g/ha postemergence
  mean % injury: 28%
Mutant W20 [5]; W20, 16 g/ha postemergence
  mean % injury: 43%
Mutant W20 [5]; W20, 32 g/ha postemergence
  mean % injury: 83%
Mutant W4-4; W4-4, 4 g/ha postemergence
  mean % injury: 10%
Mutant W4-4; W4-4, 16 g/ha postemergence
  mean % injury: 30%
Mutant W4-4; W4-4, 32 g/ha postemergence
  mean % injury: 43%

## CC(C)C1(C)N=C(c2ncccc2C(=O)O)NC1=O (stereo not drawn) [Compound 11, 2-[4,5-dihydro-4-methyl-4-(1-methylethyl)-5-oxo-1H-imidazol-2-yl]-3-pyridinecarboxylic acid, 1-methylethanamine salt]
W20; W20, 8 g/ha
  mean % injury: 20%
W20; W20, 17.5 g/ha
  mean % injury: 30%
W20; W20, 35 g/ha
  mean % injury: 60%
Mutant line W19; W19, 16 g/ha postemergence
  percent soybean crop injury at 16 g/ha: 41%
Mutant line W19; W19, 64 g/ha postemergence
  percent soybean crop injury at 64 g/ha: 60%
Mutant line W4; W4, 16 g/ha postemergence
  % crop injury at 16 g/ha: 39%
Mutant line W4; W4, 64 g/ha postemergence
  % crop injury at 64 g/ha: 73%
Mutant line W23; W23, 16 g/ha postemergence
  percent soybean injury at 16 g/ha: 41%
Mutant line W23; W23, 64 g/ha postemergence
  percent soybean injury at 64 g/ha: 74%
Williams 82 [1]; Wm 82, 16 g/ha postemergence
  soybean crop injury at 16 g/ha: 49%
Williams 82 [1]; Wm 82, 64 g/ha postemergence
  soybean crop injury at 64 g/ha: 75%
Mutant line W17; W17, 16 g/ha postemergence
  soybean crop injury (%) at 16 g/ha: 39%
Mutant line W17; W17, 64 g/ha postemergence
  soybean crop injury (%) at 64 g/ha: 61%
Mutant line W28; W28, 16 g/ha postemergence
  mean % injury to soybean at 16 g/ha: 45%
Mutant line W28; W28, 64 g/ha postemergence
  mean % injury to soybean at 64 g/ha: 68%
W4-4; W4-4, 8 g/ha
  mean % injury: 0%
W4-4; W4-4, 17.5 g/ha
  mean % injury: 5%
W4-4; W4-4, 35 g/ha
  mean % injury: 25%
Mutant line W20; W20, 16 g/ha postemergence
  percent crop injury at 16 g/ha: 44%
Mutant line W20; W20, 64 g/ha postemergence
  percent crop injury at 64 g/ha: 61%
WM82 (Williams); WM82, 8 g/ha
  mean % injury: 50%
WM82 (Williams); WM82, 17.5 g/ha
  mean % injury: 60%
WM82 (Williams); WM82, 35 g/ha
  mean % injury: 75%
Williams 82 [4]; WM82, 64 g/ha postemergence
  mean % injury: 73%
Williams 82 [4]; WM82, 125 g/ha postemergence
  mean % injury: 83%
Mutant W20 [5]; W20, 64 g/ha postemergence
  mean % injury: 48%
Mutant W20 [5]; W20, 125 g/ha postemergence
  mean % injury: 80%
Mutant W4-4; W4-4, 64 g/ha postemergence
  mean % injury: 38%
Mutant W4-4; W4-4, 125 g/ha postemergence
  mean % injury: 53%

From patent US5084082A, “Soybean plants with dominant selectable trait for herbicide resistance” (priority 1990, dated 1992)
